{"source": "patent US20150034084A1", "about": "“[…] NITRIC OXIDE FOR TREATING RESPIRATORY DISEASES” (Advanced Inhalation Therapies (AIT) Ltd., priority 2012, published 2015)", "key": {"Enterobacter sp.": {"system": "Enterobacter sp.", "conditions": "200 ppm gNO, saline; cited from earlier work"}, "P. aeruginosa (ATCC)": {"system": "P. aeruginosa (ATCC)", "conditions": "200 ppm gNO, saline; cited from earlier work"}, "[1]": {"system": "bovine respiratory disease", "conditions": "intermittent 30 minute exposures of gNO, cattle; cited from earlier work"}, "Pseudomonas aeruginosa": {"system": "Pseudomonas aeruginosa", "conditions": "160 ppm gNO, intermittent 30 minute exposures, rat; cited from earlier work"}, "[2]": {"experiment": "Phase I safety study: serum nitrite/nitrate by Griess reagent", "type": "in vivo, human", "conditions": "during the trial, 160 ppm gNO", "description": "(§1) After obtaining informed consent, treatment was initiated within 5 days of enrollment. Subjects were housed in a hospital ward and received 160 ppm gNO for 30 minutes every four hours (Q4h), five times a day, for five consecutive days by inhalation. Subjects returned for follow-up evaluations 3, 7 and 21 days after the final gNO administration. Subject safety was determined by monitoring vital signs, methemoglobin levels, lung function, blood chemistry, hematology, prothrombin time, inflammatory cytokine/chemokines levels and endothelial activation. These parameters were compared to baseline and at various time-points during and after gNO administration.\nThese parameters were measured continuously during every gNO administration course and for 3.5 hours after the first treatment of the day. Daily serum samples were collected and frozen at −80° C. and the serum […] level was measured using the Griess reagent."}, "[3]": {"conditions": "rats, cited from earlier work"}, "[4]": {"system": "influenza A/victoria/H3N2", "conditions": "160 ppm gNO, cited from earlier work"}, "MRSA": {"system": "MRSA", "conditions": "200 ppm gNO, saline; cited from earlier work"}, "P. aeruginosa": {"system": "P. aeruginosa", "conditions": "cited from earlier work"}, "[5]": {"system": "highly pathogenic Avian Influenza H7N3", "conditions": "cited from earlier work"}, "Serracia sp.": {"system": "Serracia sp.", "conditions": "200 ppm gNO, saline; cited from earlier work"}, "Mycobacterium": {"system": "Mycobacterium", "conditions": "200 ppm gNO, saline; cited from earlier work"}, "[6]": {"system": "human respiratory syncytial virus (rgRSV30)", "experiment": "RSV exposure to 160 ppm gNO for 30 minutes, plaque/fluorescence assay", "type": "cell-based", "conditions": "single 30 minutes exposure to 160 ppm gNO"}, "[7]": {"experiment": "Phase I safety study: pulmonary function tests", "type": "in vivo, human", "description": "as §1\nSubjects underwent full pulmonary function tests (PFT), including lung diffusing capacity (DLCO) by a trained technician utilizing a calibrated pulmonary function system (Jaeger MasterScreen, VIASYS Healthcare, USA) on screening and days 2, 8, 12 and 26. Spirometry test (Microloop by Micro Medical, England) was performed on days 1, 3 and 4. Effect of gNO on lung function and DLCO was determined by changes from baseline, treatment days and follow up days."}, "[8]": {"experiment": "Phase I open label safety study of intermittent 160 ppm gNO inhalation: adverse events, vital signs, oxygenation", "type": "in vivo, human", "from_the_text": "10 healthy adult volunteer subjects (5 males, 5 females), aged 20 to 62 years, were enrolled in the study after screening their medical history, a physical examination, pulmonary function tests and blood values. Exclusion criteria included individuals less than 19 years of age, pregnant females and unwilling to practice birth control during the study, diagnosed with pulmonary disease, epistaxis, hemoptysis, methemoglobinemia, organ transplant recipient or receiving antibiotic therapy.\nas §1\nSubjects were administered gNO through a modified disposable mouthpiece to maximize mixing. Inspiration was spontaneously initiated by the subject from a conventional intermittent positive pressure breathing respirator (Mark-7, Carefusion, USA) in fixed flow mode delivering 48 liters per minute (LPM). Flows of gas were verified with a calibrated mass flow meter (TSI, USA). Gaseous nitric oxide (gNO, obtained at INOmax, Ikaria, USA) at a concentration of 800 ppm delivered at a flow of 12 LPM was titrated into a distal delivery port on the mouth piece connected to the respirator during inspiratory phase only (pressure switch). The Mark 7 respirator was supplied by an air/oxygen blender (Bird Sentry, Carefusion, USA) set to deliver 26% oxygen.\nGeneral medical examinations were performed by a pulmonary physician on screening and on days 8, 12 and 26 to obtain oxygenation and vital sign measurements. Abbreviated physical examination by a registered nurse was carried out each day prior to initiation of treatments on days 1-5. Oxygenation was measured with a pulse oximeter (Rad 57, Masimo Corporation, USA) which was used according to manufacturer's guidelines to measure functional oxygen saturation of arterial hemoglobin (SpO2) and heart rate. These parameters were measured continuously during every gNO administration and for 3.5 hours after the first treatment of the day. Cardiovascular status was determined by monitoring heart rate, blood pressure, respiratory rate and temperature. Values were recorded prior to the start of each gNO administration, following a 5 minute rest. During treatments, vital signs (except temperature) were also performed 15 minutes after the start of the treatment and at the end of gNO administration and recorded. After the first treatment each day, vital signs were recorded at every 30 minutes until the start of the second gNO administration of the day."}, "[9]": {"conditions": "in vivo; cited from earlier work"}, "[10]": {"conditions": "OSHA / Environmental Protection Agency; cited from earlier work"}, "[11]": {"conditions": "during and after gNO administration, 160 ppm"}, "[12]": {"conditions": "160 ppm gNO 30 min, 5 times a day, 5 days, 10 healthy adults"}, "[13]": {"conditions": "during or after gNO administration, 160 ppm"}}, "note": "Read-outs that look alike come from different tables or passages of the source."}
{"smiles": "[N]=O", "note": "[gNO, nitric oxide]", "values": [{"measurement": "LD100", "setting": "Enterobacter sp.", "value": 6, "unit": "h"}, {"measurement": "Latent Period", "setting": "Enterobacter sp.", "value": 4, "unit": "h"}, {"measurement": "−2.5 Log10", "setting": "Enterobacter sp.", "value": 5.3, "unit": "hours"}, {"measurement": "LD100", "setting": "P. aeruginosa (ATCC)", "value": 3, "unit": "h"}, {"measurement": "Latent Period", "setting": "P. aeruginosa (ATCC)", "value": 1, "unit": "h"}, {"measurement": "−2.5 Log10", "setting": "P. aeruginosa (ATCC)", "value": 2.1, "unit": "hours"}, {"measurement": "clinical symptoms of bovine respiratory disease", "setting": "[1]", "value": "decrease the clinical symptoms"}, {"measurement": "pulmonary bioburden and leukocyte infiltration", "setting": "Pseudomonas aeruginosa", "value": "effective to reduce the pulmonary bioburden and leukocyte infiltration"}, {"measurement": "serum nitrite/nitrate levels versus baseline", "setting": "[2]", "value": "no significant differences"}, {"measurement": "mortality", "setting": "[3]; 300 ppm gNO, groups of 10, first 1-2 days", "value": "Six of the animals"}, {"measurement": "mortality", "setting": "[3]; 400 ppm gNO, 6 hours per day", "value": "all of the animals died on the first day"}, {"measurement": "MetHb level", "setting": "[3]; 400 ppm gNO", "value": 72.5, "unit": "percents"}, {"measurement": "mortality", "setting": "[3]; 500 ppm gNO, 6 hours per day", "value": "all of the animals died on the first day"}, {"measurement": "MetHb level", "setting": "[3]; 500 ppm gNO", "value": 67, "unit": "percents"}, {"measurement": "infectivity", "setting": "[4]; MDCK plaque assay, A/Victoria/H3N2", "value": "reducing the infectivity"}, {"measurement": "anti-viral effect, intermittent versus single exposure", "setting": "[4]; one 30 minute dose vs three 30 minute treatments Q4h", "value": "more evident in the intermittent form of exposure"}, {"measurement": "LD100", "setting": "MRSA", "value": 5, "unit": "h"}, {"measurement": "Latent Period", "setting": "MRSA", "value": 3, "unit": "h"}, {"measurement": "−2.5 Log10", "setting": "MRSA", "value": 4.2, "unit": "hours"}, {"measurement": "survival (downward bactericidal trend towards)", "setting": "P. aeruginosa; 50-160 ppm gNO, solid media, vs medical air", "value": "5-10%"}, {"measurement": "reduction of colony formation", "setting": "P. aeruginosa; gNO greater than 120 ppm, agar plates", "value": "greater than 90%"}, {"measurement": "time required to achieve the >90% reduction of colony formation", "setting": "P. aeruginosa; gNO greater than 120 ppm", "value": "8 to 12", "unit": "h"}, {"measurement": "infectivity", "setting": "[5]", "value": "reducing the infectivity"}, {"measurement": "LD100", "setting": "Serracia sp.", "value": 6, "unit": "h"}, {"measurement": "Latent Period", "setting": "Serracia sp.", "value": 4, "unit": "h"}, {"measurement": "−2.5 Log10", "setting": "Serracia sp.", "value": 4.9, "unit": "hours"}, {"measurement": "LD100", "setting": "Mycobacterium", "value": 10, "unit": "h"}, {"measurement": "Latent Period", "setting": "Mycobacterium", "value": 7, "unit": "h"}, {"measurement": "−2.5 Log10", "setting": "Mycobacterium", "value": 9.2, "unit": "hours"}, {"measurement": "viral viability", "setting": "[6]; starting level 500 PFU", "value": "substantially nullified"}, {"measurement": "reduction of virus viability (factor)", "setting": "[6]; starting level 1000 PFU", "value": "~10"}, {"measurement": "reduction of virus viability (factor)", "setting": "[6]; starting level 2000 PFU", "value": "~10"}, {"measurement": "lung parenchymal injury", "setting": "[7]; 160 ppm NO, measured by lung function parameters", "value": "did not cause lung parenchymal injury"}, {"measurement": "pulmonary function tests, abnormalities", "setting": "[7]; [11]", "value": "did not reveal any abnormalities"}, {"measurement": "DLCO versus baseline", "setting": "[7]; during the course of the study", "value": "did not change from baseline"}, {"measurement": "FEV1 versus baseline", "setting": "[7]; during the course of the study", "value": "did not differ from baseline"}, {"measurement": "forced vital capacity (FVC) versus baseline", "setting": "[7]; during the course of the study", "value": "did not change from baseline"}, {"measurement": "maximum mid-expiratory flow (MMEF) versus baseline", "setting": "[7]; during the course of the study", "value": "did not differ from baseline"}, {"measurement": "residual volume (RV) versus baseline", "setting": "[7]; during the course of the study", "value": "did not change from baseline"}, {"measurement": "total lung capacity (TLC) versus baseline", "setting": "[7]; during the course of the study", "value": "did not change from baseline"}, {"measurement": "minor adverse events reported", "setting": "[8]; [12]", "value": "Three minor adverse events were reported"}, {"measurement": "significant adverse events", "setting": "[8]; [12]", "value": "no significant adverse events were observed"}, {"measurement": "tolerability of treatments", "setting": "[8]; 160 ppm gNO 30 min, 5 times a day, 5 days, 10 healthy adults, 250 administrations", "value": "All treatments were well tolerated"}, {"measurement": "lowest observed SpO2", "setting": "[8]; 160 ppm gNO intermittent inhalation", "value": 93, "unit": "%"}, {"measurement": "SpO2 levels over time, pretreatment vs post treatment", "setting": "[8]; 160 ppm gNO, not significant statistically nor clinically", "value": "decreased slightly"}, {"measurement": "vital signs", "setting": "[8]; [11]", "value": "all vital signs remained within normal limits"}, {"measurement": "blood pressure", "setting": "[8]; [13]", "value": "no drop in blood pressure"}, {"measurement": "incidences of hypoxemia (less than 85% SpO2)", "setting": "[8]; [13]", "value": "No sudden incidences of hypoxemia"}, {"measurement": "half-life in the body", "setting": "[9]", "value": "less than 6 seconds"}, {"measurement": "nitrate excreted in the urine, share of the nitric oxide dose inhaled", "setting": "[9]", "value": "more than 70%"}, {"measurement": "inhalation threshold limit value (TLV) as a time-weighted average (TWA)", "setting": "[10]", "value": 25, "unit": "ppm"}]}
